Results on 2 molecules are retold here after patent US20120010159A1, “COMBINATION THERAPIES WITH COX-2 INHIBITORS AND TREPROSTINIL” (United Therapeutics Corporation, priority 2010, published 2012).

Data set [1] in a line: bioavailability when delivered to the duodenum. The format is in vivo. The settings on record: duodenal delivery. An excerpt: Accordingly, one embodiment of the present invention involves preferential delivery of the desired compound to the duodenum as well as pharmaceutical formulations that achieve duodenal delivery. Duodenal administration can be achieved by any means known in the art. In one of these embodiments, the present compounds can be formulated in an enteric-coated dosage form. Generally, enteric-coated dosage forms are usually coated with a polymer that is not soluble at low pH, but dissolves quickly when exposed to pH conditions of 3 or above. This delivery form takes advantage of the difference in pH between the stomach, which is about 1 to 2, and the duodenum, where the pH tends to be greater than 4.

The conditions of data set [2]: oral administration; cited from earlier work.
The conditions of data set [3]: administered by subcutaneous infusion; cited from earlier work.

On to `CCCCC[C@H](O)CC[C@@H]1[C@H]2Cc3cccc(OCC(=O)O)c3C[C@H]2C[C@H]1O` [treprostinil], for which the “bioavailability when delivered to the duodenum” value in data set [1] is reported as “increased bioavailability”. For the same molecule, the absolute oral bioavailability in data set [2] is on record as approximately 10%.

With `CCCCC[C@H](O)CC[C@@H]1[C@H]2Cc3cccc(OCC(=O)O)c3C[C@H]2C[C@H]1O` [treprostinil sodium], in data set [3], the absolute bioavailability was approximately 100%.
